Data published in patent US8586505B2 (SDS Biotech K. K., priority 2009, dated 2013).

Legend:
Format in all cases: in vivo
[1] = system: Pseudoperonospora cubensis; assay: Test of examining control effect on Pseudoperonospora cubensis (potted cucumber plants); conditions: 96 h, 10% wettable powder adjusted to 125 ppm, 15 ml/pot sprayed on potted cucumber plants one day before spray inoculation, assessed after 1 day wet chamber and 3 days greenhouse, read-out: Determination of control effect (preventive value) on Pseudoperonospora cubensis
Method in brief: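 Preventive treatment: 125 ppm sample agent solution (from 10% wettable powder) sprayed at 15 ml/pot on 2.5-leaf Sagamihanjiro cucumbers, then P. cubensis inoculated next day at 1.0×10^4 cells/ml. Incubation was 1 day wet at 21° C plus 3 days greenhouse. Lesion area rate compared with untreated gives preventive value (≥60% high).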

Sphaerotheca fuliginea = assay: Test of examining control effect on Sphaerotheca fuliginea (potted cucumber plants); conditions: Podosphaera fuliginea, 336 h; 10% wettable powder adjusted to 125 ppm, 15 ml/pot sprayed on potted cucumber plants one day before spray inoculation; assessed after 14 days in greenhouse; read-out: Determination of control effect (preventive value) on Sphaerotheca fuliginea
Method in brief: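 Control effect rated high at preventive value 60–100% and low below 60%, from lesion area relative to untreated plants 14 days after spray inoculation with S. fuliginea (1.0×10^5 cells/ml). Compound applied at 125 ppm as wettable-powder spray one day before inoculation, on 2nd-leaf-stage Sagamihanjiro cucumber.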

Phytophthora infestans = assay: whole plant or invertebrate; conditions: in Solanum lycopersicum, 96 h, read-out: Determination of control effect (preventive value)

Row | Compound | pest or weed control at 125 µg/mL [1] | pest or weed control at 125 µg/mL (Sphaerotheca fuliginea) | pest or weed control at 125 ppm (Phytophthora infestans)
1 | C#CCCNc1ncnc2sccc12 [compound 1, 4-(3-butynylamino)thieno[2,3-d]pyrimidine] | 0 to 60% | 0 to 60% | 0 to 60%
2 | FC(F)(F)c1ccccc1C#CCCNc1ncnc2ccccc12 [compound 101] | 60 to 100% | 60 to 100% | 60 to 100%
3 | Clc1cccc(C#CCCNc2ncnc3sccc23)c1 [compound 15] | 60 to 100% | 60 to 100% | 0 to 60%
4 | COCc1ccc2ccccc2c1C#CCCNc1ncnc2ccccc12 [compound 185] | 60 to 100% | 0 to 60% | 0 to 60%
5 | COCc1ccc(Cl)cc1C#CCCNc1ncnc2ccccc12 [compound 143] | 60 to 100% | 60 to 100% | 60 to 100%
6 | COc1cccc2c(NC(C)CC#Cc3ccc(Cl)cc3C(F)(F)F)ncnc12 (stereo not drawn) [compound 352] | 60 to 100% | 60 to 100% | 0 to 60%
7 | Fc1ccc(Oc2nc(C#CCCNc3ncnc4ccccc34)cs2)cc1 [compound 226] | 60 to 100% | 60 to 100% | 60 to 100%
8 | COC(OC)c1ccccc1C#CCCNc1ncnc2ccccc12 [compound 149] | 0 to 60% | 0 to 60% | 0 to 60%
9 | C(#Cc1cncc2ccccc12)CCNc1ncnc2ccccc12 [compound 192] | 60 to 100% | 0 to 60% | 0 to 60%
10 | Cc1ccc(C#CCCNc2ncnc3ccccc23)s1 [compound 206] | 60 to 100% | 0 to 60% | 60 to 100%
11 | Fc1ccc(C#CCCNc2ncnc3ccccc23)c(C(F)(F)F)c1 [compound 169] | 60 to 100% | 60 to 100% | 60 to 100%
12 | COCc1cccc(F)c1C#CCCNc1ncnc2ccccc12 [compound 141] | 60 to 100% | 60 to 100% | 60 to 100%
13 | CC(CC#Cc1ccc(C(F)(C(F)(F)F)C(F)(F)F)cc1Cl)Nc1ncnc2ccccc12 (stereo not drawn) [compound 281] | 60 to 100% | 60 to 100% | 0 to 60%
14 | Cc1cc(NCCC#Cc2ccc(Cl)cc2C(F)(F)F)ncn1 [compound 359] | 0 to 60% | 0 to 60% | 0 to 60%
15 | COCc1ccc(C)cc1C#CCCNc1ncnc2ccccc12 [compound 144] | 60 to 100% | 60 to 100% | 60 to 100%
16 | Fc1ccc(F)c(C#CCCNc2ncnc3ccccc23)c1 [compound 163] | 60 to 100% | 60 to 100% | 60 to 100%
17 | COCc1ccccc1C#CCCNc1ncnc2cc(F)c(F)cc12 [compound 319] | 60 to 100% | 60 to 100% | 60 to 100%
18 | C[Si](C)(C)C#CCCNc1ncnc2sccc12 [Compound No. 2, 4-(4-Trimethylsilanyl-3-butynylamino)thieno[2,3-d]pyrimidine] | 60 to 100% | 60 to 100% | 60 to 100%
19 | CC(F)c1ncnc(NCCC#Cc2ccccc2)c1I (stereo not drawn) [compound 374] | 60 to 100% | 60 to 100% | 0 to 60%
20 | O=[N+]([O-])c1c(Cl)ncnc1NCCC#Cc1ccccc1C(F)(F)F [compound 370] | 0 to 60% | 0 to 60% | 0 to 60%
21 | N#CCc1ccccc1C#CCCNc1ncnc2ccccc12 [compound 147] | 60 to 100% | 60 to 100% | 60 to 100%

Row | Compound | pest or weed control at 125 µg/mL [1] | pest or weed control at 125 µg/mL (Sphaerotheca fuliginea) | pest or weed control at 125 ppm (Phytophthora infestans)
22 | Cc1c(Cl)ncnc1NCCC#Cc1ccccc1C(F)(F)F [compound 364] | 60 to 100% | 60 to 100% | 0 to 60%
23 | CC(CC#Cc1c(Cl)cccc1Cl)Nc1ncnc2sccc12 (stereo not drawn) [compound 251] | 60 to 100% | 60 to 100% | 0 to 60%
24 | FC(F)(F)c1ccc(C#CCCNc2ncnc3sccc23)cc1 [compound 27] | 60 to 100% | 60 to 100% | 0 to 60%
25 | CC(CC#Cc1ccccc1Cl)Nc1ncnc2ccccc12 (stereo not drawn) [compound 272] | 60 to 100% | 60 to 100% | 60 to 100%
26 | FCc1nc(C#CCCNc2ncnc3sccc23)cs1 [compound 68] | 60 to 100% | 60 to 100% | 60 to 100%
27 | Cc1ccc(F)cc1C#CCCNc1ncnc2ccccc12 [compound 167] | 60 to 100% | 60 to 100% | 0 to 60%
28 | CC(CC#Cc1ccc(Cl)cc1C(F)(F)F)Nc1ncnc(C(F)(F)F)c1Cl (stereo not drawn) [compound 388] | 60 to 100% | 60 to 100% | 0 to 60%
29 | OCC(CC#Cc1ccccc1)Nc1ncnc2ccccc12 (stereo not drawn) [compound 299] | 60 to 100% | 0 to 60% | 60 to 100%
30 | FC(F)(F)c1ccc(C#CCCNc2ncnc3ccccc23)c(Cl)c1 [compound 182] | 60 to 100% | 60 to 100% | 0 to 60%
31 | Brc1csc(C#CCCNc2ncnc3sccc23)n1 [compound 64] | 60 to 100% | 0 to 60% | 0 to 60%
32 | COCc1cccc(C#CCCNc2ncnc3ccccc23)c1 [compound 135] | 60 to 100% | 0 to 60% | 0 to 60%
33 | Cc1cc(C)c(C#CCCNc2ncnc3ccccc23)c(C)c1 [compound 181] | 60 to 100% | 60 to 100% | 0 to 60%
34 | CS(=O)(=O)Nc1ccc(C#CCCNc2ncnc3ccccc23)cc1 [compound 123] | 60 to 100% | 0 to 60% | 0 to 60%
35 | CN(C)c1ccc(C#CCCNc2ncnc3ccccc23)cc1 [compound 159] | 60 to 100% | 60 to 100% | 0 to 60%
36 | COCc1ccccc1C#CCCNc1ncnc2c(C)cc(C)cc12 [compound 341] | 60 to 100% | 0 to 60% | 0 to 60%
37 | CC(CC#Cc1ccccc1CO)Nc1ncnc2sccc12 (stereo not drawn) [compound 243] | 60 to 100% | 60 to 100% | 60 to 100%
38 | CC(CC#Cc1ccc(F)cc1)Nc1ncnc2ccccc12 (stereo not drawn) [compound 271] | 60 to 100% | 60 to 100% | 60 to 100%
39 | COCc1ccsc1C#CCCNc1ncnc2ccccc12 [compound 207] | 60 to 100% | 60 to 100% | 60 to 100%
40 | CC(CC#Cc1ccc(C#N)cc1C(F)(F)F)Nc1ncnc2sccc12 (stereo not drawn) [compound 260] | 60 to 100% | 60 to 100% | 60 to 100%
41 | COc1ccc2nc(C#CCCNc3ncnc4sccc34)sc2c1 [compound 85] | 60 to 100% | 60 to 100% | 60 to 100%
